Source: PubChem BioAssay AID248 (DTP/NCI, 2004)
“And” between values parts separate entries of the source, which are not always exact repeats. Equal entries are not always repeated. Toxic doses and inconclusive results are not listed. Rule as the data show it: active = T/C of 150% or more; inactive = T/C below 125%.

System: L1210 leukemia ip in BDF1 mice, survival T/C
Assay: NCI In Vivo Anticancer Drug Screen. Data for tumor model L1210 Leukemia (intraperitoneal) in B6D2F1 (BDF1) mice
Settings: endpoint: mean survival time, higher = longer survival
In short: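 Transplanted-tumor mice were given test agent; controls received vehicle only. Survival readings from the two groups were divided (treated over control).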

[1] = dose: 100.0 mg/kg/injection, schedule: Q04DX003 (ip), vehicle: saline with Tween-80
[2] = dose: 50.0 mg/kg/injection, schedule: Q01DX001 (ip), vehicle: saline
[3] = dose: 100.0 mg/kg/injection, schedule: Q01DX001 (ip), vehicle: saline
[4] = dose: 200.0 mg/kg/injection, schedule: Q01DX001 (ip), vehicle: saline
[5] = dose: 400.0 mg/kg/injection, schedule: Q01DX001 (ip), vehicle: saline
[6] = dose: 100.0 mg/kg/injection, schedule: Q04DX002 (ip), vehicle: saline with Tween-80
[7] = dose: 200.0 mg/kg/injection, schedule: Q04DX002 (ip), vehicle: saline with Tween-80
[8] = dose: 400.0 mg/kg/injection, schedule: Q04DX002 (ip), vehicle: saline with Tween-80
[9] = dose: 200.0 mg/kg/injection, schedule: Q04DX003 (ip), vehicle: saline with Tween-80
[10] = dose: 400.0 mg/kg/injection, schedule: Q04DX003 (ip), vehicle: saline with Tween-80
[11] = dose: 100.0 mg/kg/injection, schedule: Q01DX009 (ip), vehicle: saline
[12] = dose: 200.0 mg/kg/injection, schedule: Q01DX009 (ip), vehicle: saline
[13] = dose: 400.0 mg/kg/injection, schedule: Q01DX009 (ip), vehicle: saline
[14] = dose: 50.0 mg/kg/injection, schedule: Q01DX001 (ip), vehicle: carboxymethylcellulose (CMC)
[15] = dose: 100.0 mg/kg/injection, schedule: Q01DX001 (ip), vehicle: carboxymethylcellulose (CMC)
[16] = dose: 100.0 mg/kg/injection, schedule: Q04DX003 (ip), vehicle: saline
[17] = dose: 200.0 mg/kg/injection, schedule: Q04DX003 (ip), vehicle: saline
[18] = dose: 400.0 mg/kg/injection, schedule: Q04DX003 (ip), vehicle: saline

Measured: T/C

O=C(/C=C/c1ccc(Cl)c(Cl)c1)c1ccc(Cl)cc1
inactive: dose: 6.25 mg/kg/injection, schedule: Q01DX009 (ip), vehicle: saline with Tween-80 97 % of control | dose: 6.25 mg/kg/injection, schedule: Q04DX003 (ip), vehicle: saline with Tween-80 110 % of control | dose: 12.5 mg/kg/injection, schedule: Q01DX009 (ip), vehicle: saline with Tween-80 97 % of control | dose: 12.5 mg/kg/injection, schedule: Q04DX003 (ip), vehicle: saline with Tween-80 96 % of control | dose: 25.0 mg/kg/injection, schedule: Q01DX009 (ip), vehicle: saline with Tween-80 95 % of control | dose: 25.0 mg/kg/injection, schedule: Q04DX003 (ip), vehicle: saline with Tween-80 94 % of control and 89 % of control | [1] 87 % of control and 88 % of control

O=C(O)c1cc2ccccc2c2cc(Br)ccc12
inactive: dose: 100.0 mg/kg/injection, schedule: Q01DX009 (ip), vehicle: saline sonified 100 % of control | dose: 100.0 mg/kg/injection, schedule: Q04DX003 (ip), vehicle: Klucel (hydroxypropylcellulose) (HPC) 91 % of control | dose: 200.0 mg/kg/injection, schedule: Q01DX009 (ip), vehicle: saline sonified 97 % of control | dose: 200.0 mg/kg/injection, schedule: Q04DX003 (ip), vehicle: Klucel (hydroxypropylcellulose) (HPC) 108 % of control | dose: 400.0 mg/kg/injection, schedule: Q04DX003 (ip), vehicle: Klucel (hydroxypropylcellulose) (HPC) 103 % of control

CN(Cc1ccccc1)c1ccccc1
inactive: [2] 97 % of control | [3] 97 % of control | [4] 97 % of control | [5] 97 % of control

C=CCNC(=S)OCC
inactive: [6] 100 % of control | [7] 97 % of control | [8] 103 % of control

CCOc1ccc(Br)cc1C=O
inactive: dose: 100.0 mg/kg/injection, schedule: Q01DX009 (ip), vehicle: saline with Tween-80 97 % of control | [1] 97 % of control | dose: 200.0 mg/kg/injection, schedule: Q01DX009 (ip), vehicle: saline with Tween-80 91 % of control | [9] 97 % of control | dose: 400.0 mg/kg/injection, schedule: Q01DX009 (ip), vehicle: saline with Tween-80 91 % of control | [10] 101 % of control

CC1CC(=O)NN1C(=S)Nc1ccccc1 (stereo unspecified)
inactive: [1] 102 % of control | [9] 98 % of control | [10] 100 % of control

O=C(O)/C=C(/Oc1ccc(Cl)cc1)C(=O)O
inactive: dose: 100.0 mg/kg/injection, schedule: Q04DX002 (ip), vehicle: other 93 % of control | dose: 200.0 mg/kg/injection, schedule: Q04DX002 (ip), vehicle: other 103 % of control | dose: 400.0 mg/kg/injection, schedule: Q04DX002 (ip), vehicle: other 100 % of control

CN(C)Cc1ccc(C(C)(C)C)cc1
inactive: dose: 25.0 mg/kg/injection, schedule: Q01DX009 (ip), vehicle: water 97 % of control | dose: 50.0 mg/kg/injection, schedule: Q01DX009 (ip), vehicle: water 105 % of control | dose: 100.0 mg/kg/injection, schedule: Q01DX009 (ip), vehicle: water 95 % of control

C/C(=N\NC(=S)Nc1cc(Cl)ccc1Cl)c1cc([N+](=O)[O-])c(O)cc1O
inactive: dose: 100.0 mg/kg/injection, schedule: Q01DX001 (ip), vehicle: Klucel (hydroxypropylcellulose) (HPC) 104 % of control | dose: 200.0 mg/kg/injection, schedule: Q01DX001 (ip), vehicle: Klucel (hydroxypropylcellulose) (HPC) 101 % of control | dose: 400.0 mg/kg/injection, schedule: Q01DX001 (ip), vehicle: Klucel (hydroxypropylcellulose) (HPC) 93 % of control

O=C(Nc1cc([N+](=O)[O-])ccc1O)c1ccccc1Cl
inactive: [11] 101 % of control | [12] 97 % of control | [13] 98 % of control

CN(C)CCOC(=O)c1ccc(CBr)cc1
inactive: dose: 10.0 mg/kg/injection, schedule: Q01DX009 (ip), vehicle: saline 97 % of control | dose: 20.0 mg/kg/injection, schedule: Q01DX009 (ip), vehicle: saline 95 % of control | dose: 40.0 mg/kg/injection, schedule: Q01DX009 (ip), vehicle: saline 93 % of control | dose: 87.5 mg/kg/injection, schedule: Q01DX009 (ip), vehicle: saline 101 % of control

N#CCCOCC(OCCC#N)C(COCCC#N)OCCC#N (stereo unspecified)
inactive: [14] 95 % of control | [15] 97 % of control | dose: 200.0 mg/kg/injection, schedule: Q01DX001 (ip), vehicle: carboxymethylcellulose (CMC) 97 % of control | dose: 400.0 mg/kg/injection, schedule: Q01DX001 (ip), vehicle: carboxymethylcellulose (CMC) 92 % of control

O=C(/C=C/c1ccc(Cl)cc1)CCN1CCC2CCC(C2)C1 (stereo unspecified)
inactive: [14] 92 % of control | [15] 95 % of control

CC(=O)N1C(=O)/C(=C\c2cc3c(cc2Br)OCO3)c2cc3c(cc21)OCO3
inactive: [2] 118 % of control | [3] 100 % of control | [4] 106 % of control | [5] 106 % of control

C=C(C)C1CC(=O)C2(C)OC2C1 (stereo unspecified)
inactive: dose: 75.0 mg/kg/injection, schedule: Q01DX001 (ip), vehicle: other 102 % of control | dose: 150.0 mg/kg/injection, schedule: Q01DX001 (ip), vehicle: other 98 % of control | dose: 300.0 mg/kg/injection, schedule: Q01DX001 (ip), vehicle: other 94 % of control

O=c1nc2n(CCC[N+](=O)[O-])c3ccccc3nc-2c(=O)[nH]1
inactive: [3] 102 % of control | [16] 88 % of control | [4] 98 % of control | [17] 96 % of control | [5] 102 % of control | [18] 115 % of control

Cc1cnc(NC(N)=O)nc1-c1ccccc1O
inactive: dose: 100.0 mg/kg/injection, schedule: Q04DX002 (ip), vehicle: Klucel (hydroxypropylcellulose) (HPC) 95 % of control | dose: 200.0 mg/kg/injection, schedule: Q04DX002 (ip), vehicle: Klucel (hydroxypropylcellulose) (HPC) 91 % of control | dose: 400.0 mg/kg/injection, schedule: Q04DX002 (ip), vehicle: Klucel (hydroxypropylcellulose) (HPC) 87 % of control

O=C1OCC/C1=C\c1cccc(/C=C2\CCOC2=O)c1
inactive: dose: 25.0 mg/kg/injection, schedule: Q04DX002 (ip), vehicle: saline with Tween-80 92 % of control | dose: 50.0 mg/kg/injection, schedule: Q04DX002 (ip), vehicle: saline with Tween-80 95 % of control | [6] 106 % of control | [7] 100 % of control

Cc1cc(O)ccc1CCC#N
inactive: [11] 96 % of control and 91 % of control | [6] 95 % of control and 101 % of control | [12] 104 % of control and 115 % of control | [7] 95 % of control and 96 % of control | [13] 96 % of control and 89 % of control | [8] 95 % of control and 101 % of control

C#CC(C)(C)OCC1CO1 (stereo unspecified)
inactive: dose: 25.0 mg/kg/injection, schedule: Q01DX009 (ip), vehicle: saline 93 % of control | dose: 25.0 mg/kg/injection, schedule: Q04DX003 (ip), vehicle: saline 101 % of control | dose: 50.0 mg/kg/injection, schedule: Q01DX009 (ip), vehicle: saline 90 % of control | dose: 50.0 mg/kg/injection, schedule: Q04DX003 (ip), vehicle: saline 113 % of control | [11] 102 % of control | [16] 108 % of control | [12] 108 % of control | [17] 95 % of control | [13] 93 % of control | [18] 106 % of control
